Test results published in patent publication US5658924A, “1,8-naphthyridin-2-one derivative and use thereof” (The Green Cross Corporation, priority 1995, dated 1997).

Assays:
PDE isozyme IV = assay: Inhibition of PDE (isozyme IV); format: biochemical; conditions: pig ventricular muscle, [3H]-cAMP substrate; read-out: PDE Inhibitory activity (IC5 :μM), PDE isozyme IV
Procedure: (§1) Inhibition of PDE by 1,8-naphthyridin-2-one derivative
(§2) The centrifugation supernatant of the homogenate of pig ventricular muscle was separated into isozyme by ortho-(diethylaminoethyl)-cellulose chromatography and used as an enzyme source. Respective isozymes were confirmed by the reaction with respective activity regulators. [^3 H]-cAMP was used as a substrate and the reaction was carried out in the presence of 5'-nucleotidase. A sample was dissolved in dimethyl sulfoxide and added to the reaction mixture. [^3 H]-5'-AMP produced by PDE was decomposed into [^3 H]-adenosine by 5'-nucleotidase. An anion exchange resin was added to adsorb the unreacted [^3 H]-cAMP, whereby the reaction was stopped. The [^3 H]-adenosine radioactivity of the supernatant was determined, based on which the PDE inhibitory action was calculated.

PDE isozyme II = target: T1, PDE isozyme II (Sus scrofa, UniProt F1SUV3); assay: Inhibition of PDE (isozyme II); format: biochemical; conditions: pig ventricular muscle, [3H]-cAMP substrate; read-out: PDE Inhibitory activity (IC5 :μM), PDE isozyme II
T1 construct: centrifugation supernatant of the homogenate of pig ventricular muscle; from tissue; host or cells: pig ventricular muscle, supernatant of homogenate, DEAE-cellulose fraction
T1 sequence (F1SUV3 1-945): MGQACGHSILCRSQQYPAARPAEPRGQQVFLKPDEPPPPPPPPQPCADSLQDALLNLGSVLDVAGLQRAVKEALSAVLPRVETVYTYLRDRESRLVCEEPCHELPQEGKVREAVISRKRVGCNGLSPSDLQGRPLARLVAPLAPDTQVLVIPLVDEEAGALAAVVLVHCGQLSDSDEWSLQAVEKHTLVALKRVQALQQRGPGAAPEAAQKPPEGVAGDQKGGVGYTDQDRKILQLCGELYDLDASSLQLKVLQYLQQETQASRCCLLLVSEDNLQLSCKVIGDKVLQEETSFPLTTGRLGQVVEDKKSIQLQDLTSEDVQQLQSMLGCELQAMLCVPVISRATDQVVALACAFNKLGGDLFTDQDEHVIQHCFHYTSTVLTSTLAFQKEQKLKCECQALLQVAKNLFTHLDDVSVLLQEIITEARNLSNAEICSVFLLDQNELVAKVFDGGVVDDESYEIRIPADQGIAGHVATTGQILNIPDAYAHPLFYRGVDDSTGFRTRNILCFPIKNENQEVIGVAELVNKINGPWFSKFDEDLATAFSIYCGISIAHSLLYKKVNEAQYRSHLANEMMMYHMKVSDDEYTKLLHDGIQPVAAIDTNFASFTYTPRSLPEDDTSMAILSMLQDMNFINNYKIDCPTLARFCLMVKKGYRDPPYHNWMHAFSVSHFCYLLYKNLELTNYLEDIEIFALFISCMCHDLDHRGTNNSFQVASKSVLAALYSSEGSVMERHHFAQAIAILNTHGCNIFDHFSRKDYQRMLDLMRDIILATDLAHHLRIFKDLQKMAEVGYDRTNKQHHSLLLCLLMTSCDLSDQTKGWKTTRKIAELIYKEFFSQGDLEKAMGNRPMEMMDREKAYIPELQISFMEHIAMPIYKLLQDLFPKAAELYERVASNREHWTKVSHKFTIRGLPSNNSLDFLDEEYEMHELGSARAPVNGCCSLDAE
Procedure: as §1, §2

[1] = system: histamine-induced contraction of bronchial specimen; assay: Suppression of histamine-induced contraction of bronchial specimen extracted from guinea pig; design: species or system guinea pig (male Hartley); conditions: histamine 3 μM
Procedure: (§3) Suppression of histamine or leukotriene D4 -induced contraction of bronchial specimen extracted from guinea pig
(§4) Male Hartley guinea pigs weighing 250-450 g were fainted by hitting in the head and exsanguinated to death. The trachea was removed and ring specimens were prepared by a conventional method. The specimens were kept at 37° C. and suspended in a Krebs-Ringer solution (10 ml) aerated with a 95% O2 -5% CO2 mixed gas, and isometric tension was measured. The specimens were contracted with histamine (3 μM) or leukotriene D4 (1 nM). When the reaction became stable, a drug dissolved in dimethyl sulfoxide was added to the Kreb's Ringer solution. The relaxation ratio was calculated based on the base line before the contraction, which was taken as 100% relaxation.

[2] = system: leukotriene D4-induced contraction of bronchial specimen; assay: Suppression of leukotriene D4-induced contraction of bronchial specimen extracted from guinea pig; design: species or system guinea pig (male Hartley); conditions: leukotriene D4 1 nM
Procedure: as §3, §4

PDE isozyme I = assay: Inhibition of PDE (isozyme I); format: biochemical; conditions: pig ventricular muscle, [3H]-cAMP substrate; read-out: PDE Inhibitory activity (IC5 :μM), PDE isozyme I
Procedure: as §1, §2

PDE isozyme III = target: T2, PDE isozyme III (Sus scrofa, UniProt I3L6S5); assay: Inhibition of PDE (isozyme III); format: biochemical; conditions: pig ventricular muscle, [3H]-cAMP substrate; read-out: PDE Inhibitory activity (IC5 :μM), PDE isozyme III
T2 construct: centrifugation supernatant of the homogenate of pig ventricular muscle; from tissue; host or cells: pig ventricular muscle, supernatant of homogenate, DEAE-cellulose fraction
T2 sequence (I3L6S5 1-1145): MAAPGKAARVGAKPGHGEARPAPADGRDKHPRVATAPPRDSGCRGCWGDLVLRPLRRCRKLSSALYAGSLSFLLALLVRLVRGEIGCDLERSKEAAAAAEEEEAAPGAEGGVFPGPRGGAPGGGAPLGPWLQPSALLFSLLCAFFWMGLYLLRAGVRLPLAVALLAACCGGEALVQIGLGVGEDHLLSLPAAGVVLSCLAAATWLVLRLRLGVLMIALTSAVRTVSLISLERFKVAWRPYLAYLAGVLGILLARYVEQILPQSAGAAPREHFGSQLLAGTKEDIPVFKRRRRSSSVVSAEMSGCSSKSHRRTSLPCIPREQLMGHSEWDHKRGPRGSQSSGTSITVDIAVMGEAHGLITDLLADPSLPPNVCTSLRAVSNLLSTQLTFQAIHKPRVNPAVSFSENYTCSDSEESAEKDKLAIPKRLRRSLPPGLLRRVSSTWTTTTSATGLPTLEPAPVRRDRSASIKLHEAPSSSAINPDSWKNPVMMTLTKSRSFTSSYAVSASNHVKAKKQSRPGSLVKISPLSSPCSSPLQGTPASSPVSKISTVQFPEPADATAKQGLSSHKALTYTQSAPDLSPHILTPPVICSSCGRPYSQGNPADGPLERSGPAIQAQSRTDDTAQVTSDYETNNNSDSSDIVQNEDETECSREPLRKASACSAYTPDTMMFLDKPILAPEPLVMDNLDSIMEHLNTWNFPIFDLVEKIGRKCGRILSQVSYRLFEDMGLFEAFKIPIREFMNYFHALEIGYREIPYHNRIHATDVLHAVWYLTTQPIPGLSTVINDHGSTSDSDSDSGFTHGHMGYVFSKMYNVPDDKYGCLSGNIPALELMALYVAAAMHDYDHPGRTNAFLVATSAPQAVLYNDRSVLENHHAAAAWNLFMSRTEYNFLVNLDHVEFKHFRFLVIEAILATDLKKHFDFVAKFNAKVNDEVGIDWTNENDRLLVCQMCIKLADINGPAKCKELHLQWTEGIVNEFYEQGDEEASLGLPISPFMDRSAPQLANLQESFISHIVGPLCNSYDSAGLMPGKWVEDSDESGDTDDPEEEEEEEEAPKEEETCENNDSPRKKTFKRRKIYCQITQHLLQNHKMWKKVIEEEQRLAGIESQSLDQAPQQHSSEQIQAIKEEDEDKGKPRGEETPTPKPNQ
Procedure: as §1, §2

endothelin [3] = assay: Prevention of lethal effect on mice induced by intravenous administration of endothelin; format: in vivo, mice (male ICR)
Procedure: Prevention of lethal effect on mice induced by intravenous administration of endothelin
Male ICR mice (6-7 weeks of age) were used without anesthetization. A solvent (physiological saline or 0.5% carboxymethylcellulose in physiological saline) or a medium, in which a drug had been dissolved or suspended, was administered in a dose of 50 μl /10 g body weight via the tail vein of the mice. Five minutes later, 5 nmol/kg of endothelin (Peptide Institute) dissolved in the same amount of a solvent was intravenously administered. The mice were monitored for 60 minutes after the endothelin administration and the number of dead animals and the latency (seconds) until death were determined. […] The test results of Compound 2 are representatively shown.

[4] = system: endothelin-induced contraction of extracted pig coronary artery; assay: Suppression of endothelin-induced contraction in extracted pig coronary artery; conditions: 10 μM
Procedure: Suppression of endothelin-induced contraction in extracted pig coronary artery
Rectangular specimens of pig left anterior descendens coronary artery (endothelial cells removed) were used. The specimens were heated to 37° C. and suspended in a Tyrode's solution (10 ml) aerated with a 95% O2 -5% CO2 mixed gas under the resting tension of 1.5 g, and changes in isometric tension were determined. The specimens were contracted with 10 nM endothelin and when the reaction became stable, a drug dissolved in dimethyl sulfoxide was added to the. Tyrode's solution. The relaxation ratio was calculated relative to the base line before the contraction, which was taken as 100% relaxation. The representative test results of Compound 2 (administration concentration: 10 μM) are shown.

Acute toxicity in mice = format: in vivo, mice (ICR); conditions: mouse, in vivo, po, mice; estimated; read-out: oral lethal dose 50% (LD50)
Procedure: (§5) Acute toxicity of 1,8-naphthyridin-2-one derivative in mice
(§6) ICR mice (6-8 weeks of age, 7 per group) were fasted overnight and used for the experiment. A solvent (0.5% aqueous solution of carboxymethylcellulose) or a medium, in which a drug had been dissolved or suspended, was orally administered to mice in a dose of 0.1 ml/10 g body weight, and life or death of the animals was monitored for 72 hours after the administration. The representative test results of Compound 2 (300 mg/kg p.o.) are shown.

mice = assay: Acute toxicity in mice; format: in vivo, mice (ICR); conditions: 300 mg/kg p.o., 72 hours
Procedure: as §5, §6

endothelin [5] = assay: Effect against endothelin-induced pressor activity in rats; format: in vivo, rats (male SD); conditions: 10 mg/kg i.v., 10 min after endothelin 1 nmol/kg; blood pressure 20 min after endothelin
Procedure: Effect against endothelin-induced pressor activity in rats
Male SD rats (6 to 8 weeks of age) were anesthetized with sodium pentobarbital (60 mg/kg, i.p.), and a polyethylene catheter was inserted in the left carotid artery, which was connected to a pressure transducer (TP-400T, manufactured by Nihon Koden), and the blood pressure was measured via a polygraph (RM-6000 manufactured by Nihon Koden).
The pressor activity was induced by administering endothelin (1 nmol/kg) dissolved in a solvent, from the femoral vein. With regard to the animals ascertained to have increased blood pressure, a solvent or a medium, in which a drug had been dissolved or suspended, was administered in a dose of 1 ml/kg from the femoral vein of the rats 10 minutes after the endothelin administration, and the pressor activity was observed thereafter. The representative test results of Compound 2 are shown.
The results are shown in Table 14. in the Table, changes in blood pressure 20 minutes after the endothelin administration was compared with the value obtained before the endothelin administration.

SMILES	IC50 (PDE isozyme IV) [µM]	IC50 (PDE isozyme II) [µM]	IC50 (PDE isozyme I) [µM]	IC50 (PDE isozyme III) [µM]	Suppression of contraction % (HS) ([1]; 10 μM) [%]	Suppression of contraction % (LT) ([2]; 10 μM) [%]	Prevention of death: suppression of death (%) (endothelin [3]; 30 mg/kg i.v., 5 min before endothelin 5 nmol/kg i.v., 60 min monitoring)	Prevention of death: prolongation of latency (%) (endothelin [3]; 30 mg/kg i.v., 5 min before endothelin 5 nmol/kg i.v., ** P<0.01 relative to control, Tukey)	suppression of the death caused by endothelin and prolonging action of the latency until death (endothelin [3]; i.v.)	suppressive action on the endothelin-induced contraction [4]	Suppression % of endothelin-induced contraction ([4]; contracted with 10 nM endothelin, endothelial cells removed) [%]	LD50 at 72 h (Acute toxicity in mice) [mg/kg]	Death (number of animals) (mice; 7 animals administered)	acute toxicity test result (mice)	Endothelin-induced pressor activity, Suppression % (endothelin [5]) [%]	Suppression of contraction % (HS) ([1]; 1 μM) [%]	Suppression of contraction % (LT) ([2]; 1 μM) [%]
Cc1ccccc1-c1cc2cccnc2n(Cc2ccccc2F)c1=O [Compound 1, 1-(2-fluorobenzyl)-3-(2-methylphenyl)-1,8-naphthyridin-2(1H)-one]	0.4	> 50	> 50	> 50	100	88											
Cn1c(=O)c(-c2ccccc2)cc2cccnc21 [Compound 2]	1.6	39	29	> 50	93		52	305	showed suppression of the death caused by endothelin and a prolonging action of the latency until death	showed evident suppressive action	74	≥ 300	0	tested negative in the acute toxicity test	38.5		
O=c1c(-c2ccccn2)cc2cccnc2n1CC1CC1 [Compound 3]	1.4	18	66	80												60	100

More lines, main results first:

IC50 (PDE isozyme IV) [µM]	IC50 (PDE isozyme II) [µM]	IC50 (PDE isozyme I) [µM]	IC50 (PDE isozyme III) [µM]	SMILES	Suppression of contraction % (HS) ([1]; 10 μM) [%]	Suppression of contraction % (LT) ([2]; 10 μM) [%]	Prevention of death: suppression of death (%) (endothelin [3]; 30 mg/kg i.v., 5 min before endothelin 5 nmol/kg i.v., 60 min monitoring)	Prevention of death: prolongation of latency (%) (endothelin [3]; 30 mg/kg i.v., 5 min before endothelin 5 nmol/kg i.v., ** P<0.01 relative to control, Tukey)	suppression of the death caused by endothelin and prolonging action of the latency until death (endothelin [3]; i.v.)	suppressive action on the endothelin-induced contraction [4]	Suppression % of endothelin-induced contraction ([4]; contracted with 10 nM endothelin, endothelial cells removed) [%]	LD50 at 72 h (Acute toxicity in mice) [mg/kg]	Death (number of animals) (mice; 7 animals administered)	acute toxicity test result (mice)	Endothelin-induced pressor activity, Suppression % (endothelin [5]) [%]	Suppression of contraction % (HS) ([1]; 1 μM) [%]	Suppression of contraction % (LT) ([2]; 1 μM) [%]
0.38	> 50	49	44	C=CCn1c(=O)c(-c2ccc(OC)cc2)cc2cccnc21 [Compound 4]	100	100											
0.35	> 50	> 50	> 50	CC(C)CCn1c(=O)c(-c2ccc(Cl)cc2)cc2cccnc21 [Compound 5]													
